BindingDB's records for doi:10.1016/j.bmcl.2009.03.150 (Gsk, 2009)

What was measured:
Experiment in all cases: Enzyme Inhibition Assay
Beta-secretase 2 = biological target: T1, Beta-secretase 2 (Homo sapiens, UniProt Q9Y5Z0)
T1 sequence (Q9Y5Z0 whole entry): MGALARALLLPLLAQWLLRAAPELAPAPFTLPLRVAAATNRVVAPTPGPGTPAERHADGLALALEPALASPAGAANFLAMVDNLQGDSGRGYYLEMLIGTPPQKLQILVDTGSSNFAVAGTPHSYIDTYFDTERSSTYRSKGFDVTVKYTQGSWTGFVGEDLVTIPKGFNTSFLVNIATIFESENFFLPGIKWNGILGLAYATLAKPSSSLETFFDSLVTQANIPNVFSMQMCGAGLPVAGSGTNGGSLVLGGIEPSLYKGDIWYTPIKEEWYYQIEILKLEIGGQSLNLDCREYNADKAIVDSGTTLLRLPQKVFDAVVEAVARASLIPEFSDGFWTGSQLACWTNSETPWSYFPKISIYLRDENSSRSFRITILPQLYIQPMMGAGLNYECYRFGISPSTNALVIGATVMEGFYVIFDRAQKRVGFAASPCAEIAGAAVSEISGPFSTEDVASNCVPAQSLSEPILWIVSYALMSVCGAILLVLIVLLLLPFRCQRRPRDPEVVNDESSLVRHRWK

Cathepsin D = Cathepsin D (Homo sapiens, UniProt P07339)
Cathepsin D, sequence (P07339 65-162 limits assumed): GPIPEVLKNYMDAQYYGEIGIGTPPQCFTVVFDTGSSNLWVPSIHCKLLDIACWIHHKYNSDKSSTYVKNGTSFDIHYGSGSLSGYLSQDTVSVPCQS
Cathepsin D, sequence (P07339 169-412 limits assumed): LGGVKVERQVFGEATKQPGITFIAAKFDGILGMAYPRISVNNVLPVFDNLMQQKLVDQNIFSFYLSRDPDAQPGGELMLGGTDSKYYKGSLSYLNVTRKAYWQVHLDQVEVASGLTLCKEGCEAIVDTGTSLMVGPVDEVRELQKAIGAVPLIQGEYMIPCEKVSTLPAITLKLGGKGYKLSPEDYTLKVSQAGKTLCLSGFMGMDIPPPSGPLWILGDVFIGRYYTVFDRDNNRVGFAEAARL

Beta-secretase 1 = Beta-secretase 1 (Homo sapiens, UniProt P56817); conditions: pH 4.5; 22 °C
Beta-secretase 1, sequence (P56817 whole entry): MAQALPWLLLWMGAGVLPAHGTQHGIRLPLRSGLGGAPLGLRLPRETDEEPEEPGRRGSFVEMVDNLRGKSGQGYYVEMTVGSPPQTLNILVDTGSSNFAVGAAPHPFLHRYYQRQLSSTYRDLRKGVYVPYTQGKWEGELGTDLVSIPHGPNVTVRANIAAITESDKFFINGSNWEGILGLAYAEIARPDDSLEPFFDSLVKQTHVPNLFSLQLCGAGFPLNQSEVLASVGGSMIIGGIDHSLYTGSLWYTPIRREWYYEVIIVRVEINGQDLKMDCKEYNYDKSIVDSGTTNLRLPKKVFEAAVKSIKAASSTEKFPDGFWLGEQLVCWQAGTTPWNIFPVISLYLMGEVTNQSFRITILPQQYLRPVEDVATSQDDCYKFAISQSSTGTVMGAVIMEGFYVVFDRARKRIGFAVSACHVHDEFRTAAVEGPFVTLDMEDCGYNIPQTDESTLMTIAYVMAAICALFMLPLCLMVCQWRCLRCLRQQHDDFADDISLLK

Row | IC50 (Beta-secretase 2) | IC50 (Cathepsin D) | IC50 (Beta-secretase 1) | Compound
1 | 3.8 µM | 2.24 µM | 0.026 µM | CCN1CCN2CCS(=O)(=O)N(C)C3C=C(C(=O)N[C@@H](Cc4ccccc4)[C@H](O)CNCc4cccc(C(F)(F)F)c4)C=C1C32 (some centres not stated) [7,6,6 tricyclic sulfonamide, 10]
2 | 5.46 µM | 2.9 µM | 0.49 µM | CCc1cn2c3c(cc(C(=O)N[C@@H](Cc4ccccc4)[C@H](O)CNC4CC4)cc13)N(C)S(=O)(=O)CCC2 [8,6,5 tricyclic sulfonamide, 33]
3 | 1.86 µM | 1.57 µM | 0.028 µM | CCc1cn2c3c(cc(C(=O)N[C@@H](Cc4ccccc4)[C@H](O)CNCc4cccc(OC)c4)cc13)N(C)S(=O)(=O)CCC2 [8,6,5 tricyclic sulfonamide, 32]

Row | Compound | IC50 (Beta-secretase 2) | IC50 (Cathepsin D) | IC50 (Beta-secretase 1)
4 | CCN1CCN2CCS(=O)(=O)N(C)C3C=C(C(=O)N[C@@H](Cc4ccccc4)[C@H](O)CNC4CC4)C=C1C32 (some centres not stated) [7,6,6 tricyclic sulfonamide, 19] | 16.2 µM | 26.3 µM | 0.55 µM
